Reference: the NIST ThermoML archive (doi:10.1016/j.tca.2015.08.007)
Numbers after ± are expanded uncertainties.

## CCCCCCCCCCOc1cc(C=NNC(=O)c2ccc(N=Cc3cc(OCCCCCCCCCC)c(OCCCCCCCCCC)c(OCCCCCCCCCC)c3)cc2)cc(OCCCCCCCCCC)c1OCCCCCCCCCC
Liquid crystal of unknown type
  Triple point temperature: 385.85 ± 2 K

## CCCCCOc1ccc(-c2ccc(C#N)cc2)cc1 [4'-pentoxy-4-cyanobiphenyl]
Nematic liquid crystal
  Triple point temperature: 339.75 ± 2 K
